Experimental findings from ChEMBL document CHEMBL2417501, “Synthesis of 4-aminoquinoline-pyrimidine hybrids as potent antimalarials and their mode of action studies” (Eur J Med Chem, 2013) are described below.

Broadly, the EC50 is the midpoint of the concentration-response curve. One may read the CC50 as the concentration at which the toxic effect on the cells reaches its halfway point. For orientation: inhibition means the relative decrease from the control value, in per cent. Usually IC50 stands for the concentration that gives 50% inhibition.

Where only a bound is given, the exact number is not on record here.

Data set [1] can be described thus: Cytotoxicity against human HEL cells. The format is cell-based.
Data set [2] deals with Cytomegalovirus. Description: Antiviral activity against Cytomegalovirus AD-169 infected in human HEL cells assessed as reduction of plaque formation. The format is functional, organism-based. The following applies: Human betaherpesvirus 5, AD-169, HEL.
Data set [3] deals with Cytomegalovirus. The data set is described as follows: Antiviral activity against Cytomegalovirus Davis infected in human HEL cells assessed as reduction of plaque formation. The format is functional, organism-based. The following applies: Human betaherpesvirus 5, Davis.
Data set [4] relates to Vesicular stomatitis virus. Description: Antiviral activity against Vesicular stomatitis virus infected in human HEL cells assessed as reduction of virus-induced cytopathogenicity. The format is functional, organism-based. On the technique in general: Damage to the host cells serves as the signal in cytopathic effect assays.
For another data set, the system named is Influenza B virus. The data set is described as follows: Antiviral activity against influenza B virus infected in dog MDCK cells assessed as reduction of virus-induced cytopathogenicity by MTS assay. The format is functional, organism-based.
Data set [5] concerns Influenza A virus. The data set is described as follows: Antiviral activity against influenza A virus […] subtype infected in dog MDCK cells assessed as reduction of virus-induced cytopathogenicity by MTS assay. Format: functional, organism-based. The following applies: read-out: EC50.
Data set [6] concerns Influenza A virus. The data set is described as follows: Antiviral activity against influenza A virus H1N1 subtype infected in dog MDCK cells assessed as reduction of virus-induced cytopathogenicity by MTS assay. The format is functional, organism-based.
The nature of data set [7]: (§1) Cytotoxicity against MDCK cells assessed as cell viability after 4 days by MTS assay. Format: cell-based, Canis lupus familiaris. The following applies: dog, MDCK cells. For orientation: Tetrazolium dyes change colour on reduction, which living cells bring about.
In data set [8] the test system is Human alphaherpesvirus 3. Description: Antiviral activity against […] Varicella-zoster virus 07-1 infected in human HEL cells assessed as reduction of plaque formation. Format: functional, organism-based. The following applies: Human alphaherpesvirus 3, 07-1, HEL.
Data set [9] relates to Human alphaherpesvirus 3. The data set is described as follows: Antiviral activity against TK-positive Varicella-zoster virus OKA infected in human HEL cells assessed as reduction of plaque formation. Format: functional, cell-based. The following applies: Human alphaherpesvirus 3, strain Oka vaccine.
In a further data set the test system is Human alphaherpesvirus 2. The data set is described as follows: Antiviral activity against Herpes simplex virus-2 G infected in human HEL cells assessed as reduction of virus-induced cytopathogenicity. The format is functional, organism-based. The settings on record: Human alphaherpesvirus 2, strain G.
Data set [10] can be described thus: Cytotoxicity against human HeLa cells. The format is cell-based.
A further data set deals with Punta Toro virus. The data set is described as follows: Antiviral activity against […] infected in african green monkey Vero cells assessed as reduction of virus-induced cytopathogenicity. The format is functional, organism-based.
A short description of data set [11]: Cytotoxicity against cat CRFK cells. The format is cell-based, Felis catus.
Data set [12] in a line: Inhibition of beta-hematin formation at 1 mg/ml. The format is functional.
For a further data set, the system named is Plasmodium falciparum. The data set is described as follows: Antimalarial activity against chloroquine-sensitive Plasmodium falciparum D10 by two-fold dilution technique. The format is functional, organism-based.
Another data set concerns Felid alphaherpesvirus 1. Description: Antiviral activity against feline herpesvirus infected in cat CRFK cells assessed as reduction of virus-induced cytopathogenicity by MTS assay. The format is functional, organism-based. The following applies: Felid alphaherpesvirus 1, CRFK.
Data set [13] relates to Coxsackievirus. Description: Antiviral activity against Coxsackievirus B4 infected in human HeLa cells assessed as reduction of virus-induced cytopathogenicity. The format is functional, organism-based.
In data set [14] the test system is Coxsackievirus. Description: Antiviral activity against Coxsackievirus B4 infected in african green monkey Vero cells assessed as reduction of virus-induced cytopathogenicity. The format is functional, organism-based.
In data set [15] the test system is Respiratory syncytial virus. The data set is described as follows: Antiviral activity against Respiratory syncytial virus infected in human HeLa cells assessed as reduction of virus-induced cytopathogenicity. The format is functional, organism-based.
Data set [16] can be described thus: Cytotoxicity against african green monkey Vero cells. Format: cell-based. The settings on record: chlorocebus sabaeus.
The next data set relates to Sindbis virus. Description: Antiviral activity against Sindbis virus infected in african green monkey Vero cells assessed as reduction of virus-induced cytopathogenicity. The format is functional, organism-based.
For another data set, the system named is Feline coronavirus. Description: Antiviral activity against Feline coronavirus infected in cat CRFK cells assessed as reduction of virus-induced cytopathogenicity by MTS assay. Format: functional, organism-based. The following applies: Alphacoronavirus 1, CRFK.
For data set [17], the system named is Vesicular stomatitis virus. Description: Antiviral activity against Vesicular stomatitis virus infected in human HeLa cells assessed as reduction of virus-induced cytopathogenicity. Format: functional, organism-based.
A further data set relates to Human respirovirus 3. The data set is described as follows: Antiviral activity against Parainfluenza-3 virus infected in african green monkey Vero cells assessed as reduction of virus-induced cytopathogenicity. Format: functional, organism-based. The settings on record: Human respirovirus 3, Vero.
The subject of data set [18] is Mammalian orthoreovirus 1. The data set is described as follows: Antiviral activity against Reovirus-1 infected in african green monkey Vero cells assessed as reduction of virus-induced cytopathogenicity. The format is functional, organism-based. The following applies: Mammalian orthoreovirus 1, Vero.
Data set [19] has as its system Human alphaherpesvirus 1. Description: Antiviral activity against TK-negative Herpes simplex virus 1 KOS infected in human HEL cells assessed as reduction of virus-induced cytopathogenicity. The format is functional, organism-based. The settings on record: Human alphaherpesvirus 1, KOS.
In data set [20] the test system is Human alphaherpesvirus 1. The data set is described as follows: Antiviral activity against Herpes simplex virus-1 KOS infected in human HEL cells assessed as reduction of virus-induced cytopathogenicity. The format is functional, organism-based. The following applies: Human alphaherpesvirus 1, KOS.
In a further data set the test system is MDCK. The description is as §1. The following applies: dog, mdck, 96 h. The format is cell-based, Canis lupus familiaris.

Take `Nc1ccn(C[C@@H](CO)OCP(=O)(O)O)c(=O)n1` [CIDOFOVIR]: the MCC in data set [1] was > 250 µM. The EC50 with Cytomegalovirus [2] was 0.86 µM; in the data set with Cytomegalovirus [3], 1.84 µM; in [4], > 250 µM.

For the compound `CC(N)C12CC3CC(CC(C3)C1)C2` (configuration not stated) [RIMANTADINE], the EC50 in the data set on Influenza B virus is > 200 µM; with Influenza A virus [5], 0.01 µM; in the data set on Influenza A virus [6], 6.4 µM. For the same compound, the MCC at 96 h in [7] was > 200000 nM.

As to `O=c1[nH]c(=O)n([C@H]2C[C@H](O)[C@@H](CO)O2)cc1/C=C/Br` [BRIVUDINE], the MCC in [1] is > 250 µM. In addition, the EC50 is 145 µM with Human alphaherpesvirus 3 [8], > 250 µM in [4], 3.82 µM in the data set on Human alphaherpesvirus 3 [9] and 146 µM in the data set on Human alphaherpesvirus 2.

In the case of `CCOC(=O)c1c(C)nc(NCCCCNc2ccnc3cc(Cl)ccc23)nc1-c1ccccc1[N+](=O)[O-]`, the MCC in [10] stood at 100 µM; in data set [1] it was 20 µM; in [16], 4 µM. Besides, the EC50 was > 0.8 µM in the data set with Punta Toro virus; > 4 µM in the data set on Cytomegalovirus [2]; > 100 µM in the data set with Felid alphaherpesvirus 1; > 20 µM in the data set with Coxsackievirus [13]; > 0.8 µM in the data set on Coxsackievirus [14]; > 20 µM in data set [15]. The EC50 in the data set with Cytomegalovirus [3] is > 4 µM; in the data set with Human alphaherpesvirus 3 [8], > 4 µM; in data set [4], > 4 µM; in the data set with Influenza B virus, > 0.16 µM; in the data set with Human alphaherpesvirus 3 [9] it was > 4 µM; with Sindbis virus, > 0.8 µM. The EC50 in the data set with Feline coronavirus is 9 µM; in the data set on Influenza A virus [5], > 0.16 µM; in [17] it was > 20 µM; with Human respirovirus 3, > 0.8 µM; in [18] it was > 0.8 µM; in the data set on Human alphaherpesvirus 1 [19], > 4 µM. In addition, the EC50 is > 0.16 µM in the data set with Influenza A virus [6], > 4 µM with Human alphaherpesvirus 1 [20] and > 4 µM in the data set with Human alphaherpesvirus 2. In addition, the values for the CC50 (in data set [11] (crfk); in the data set on MDCK) were > 100 µM and 0.8 µM, respectively. This compound registered an inhibition in [12] of 49%. In the data set with Plasmodium falciparum, this compound had an IC50 of 1.46 µM. Besides, the MCC at 96 h in data set [7] worked out at 800 nM.

Consider `Nc1nc2c(ncn2COCCO)c(=O)[nH]1` [ACYCLOVIR], for which the MCC in [1] is > 250 µM. Moreover, the figures for the EC50 (with Human alphaherpesvirus 3 [8]; in [4]) were 144 µM and > 250 µM, respectively.

For `Nc1nc2c(ncn2COC(CO)CO)c(=O)[nH]1` [GANCICLOVIR], the CC50 in data set [11] (CRFK cells) is > 100 µM. Besides, the MCC in data set [1] is > 100 µM. The EC50 was 7.87 µM in the data set on Cytomegalovirus [2]; 5.98 µM in the data set with Cytomegalovirus [3]; > 100 µM in data set [4]; > 100 µM in the data set with Feline coronavirus; 4 µM with Human alphaherpesvirus 1 [19].

Take `Nc1ncnc2c1ncn2C[C@H](O)CO` [(S)-DHPA]: the MCC in [10] and in [16] was > 250 µM throughout. In addition, the EC50 (in the data set on Punta Toro virus; in the data set on Coxsackievirus [13]; in the data set with Coxsackievirus [14]; in data set [15]; with Sindbis virus; in data set [17]) was > 250 µM in each case. Besides, the EC50 in the data set with Human respirovirus 3 was 146 µM; in data set [18], > 250 µM.
